Source: ChEMBL document CHEMBL3621049, “Imidazole derivatives show anticancer potential by inducing apoptosis and cellular senescence” (2014)
The source made the active and inactive calls.

Columns and labels:
Assay type in all cases: functional, cell-based
CCRF-CEM = test: Growth inhibition of human CCRF-CEM cells at 10 uM by sulforhodamine B assay
HL-60(TB) = test: Growth inhibition of human HL-60(TB) cells at 10 uM by sulforhodamine B assay
K562 = test: Growth inhibition of human K562 cells at 10 uM by sulforhodamine B assay
MOLT-4 = test: Growth inhibition of human MOLT4 cells at 10 uM by sulforhodamine B assay
RPMI-8226 = test: Growth inhibition of human RPMI8226 cells at 10 uM by sulforhodamine B assay
SR = test: Growth inhibition of human SR cells at 10 uM by sulforhodamine B assay
A549 = test: Growth inhibition of human A549/ATCC cells at 10 uM by sulforhodamine B assay
HOP-62 = test: Growth inhibition of human HOP62 cells at 10 uM by sulforhodamine B assay
NCI-H226 = test: Growth inhibition of human NCI-H226 cells at 10 uM by sulforhodamine B assay
NCI-H23 = test: Growth inhibition of human NCI-H23 cells at 10 uM by sulforhodamine B assay
NCI-H322M = test: Growth inhibition of human NCI-H322M cells at 10 uM by sulforhodamine B assay
NCI-H460 = test: Growth inhibition of human NCI-H460 cells at 10 uM by sulforhodamine B assay
NCI-H522 = test: Growth inhibition of human NCI-H522 cells at 10 uM by sulforhodamine B assay
COLO 205 = test: Growth inhibition of human COLO205 cells at 10 uM by sulforhodamine B assay
HCT-116 = test: Growth inhibition of human HCT116 cells at 10 uM by sulforhodamine B assay
HCT-15 = test: Growth inhibition of human HCT15 cells at 10 uM by sulforhodamine B assay
HT-29 = test: Growth inhibition of human HT-29 cells at 10 uM by sulforhodamine B assay
KM12 = test: Growth inhibition of human KM12 cells at 10 uM by sulforhodamine B assay
SW-620 = test: Growth inhibition of human SW620 cells at 10 uM by sulforhodamine B assay
SF-268 = test: Growth inhibition of human SF268 cells at 10 uM by sulforhodamine B assay
SF-295 = test: Growth inhibition of human SF295 cells at 10 uM by sulforhodamine B assay
SF-539 = test: Growth inhibition of human SF539 cells at 10 uM by sulforhodamine B assay
SNB-19 = test: Growth inhibition of human SNB19 cells at 10 uM by sulforhodamine B assay
SNB-75 = test: Growth inhibition of human SNB75 cells at 10 uM by sulforhodamine B assay
U-251 = test: Growth inhibition of human U251 cells at 10 uM by sulforhodamine B assay
LOX IMVI = test: Growth inhibition of human LOXIMVI cells at 10 uM by sulforhodamine B assay
M14 = test: Growth inhibition of human M14 cells at 10 uM by sulforhodamine B assay
MDA-MB-435 = test: Growth inhibition of human MDA-MB-435 cells at 10 uM by sulforhodamine B assay
SK-MEL-2 = test: Growth inhibition of human SK-MEL-2 cells at 10 uM by sulforhodamine B assay
SK-MEL-28 = test: Growth inhibition of human SK-MEL-28 cells at 10 uM by sulforhodamine B assay
SK-MEL-5 = test: Growth inhibition of human SK-MEL-5 cells at 10 uM by sulforhodamine B assay
UACC-257 = test: Growth inhibition of human UACC257 cells at 10 uM by sulforhodamine B assay
IGROV-1 = test: Growth inhibition of human IGROV1 cells at 10 uM by sulforhodamine B assay
OVCAR-3 = test: Growth inhibition of human OVCAR3 cells at 10 uM by sulforhodamine B assay
OVCAR-4 = test: Growth inhibition of human OVCAR4 cells at 10 uM by sulforhodamine B assay
OVCAR-5 = test: Growth inhibition of human OVCAR5 cells at 10 uM by sulforhodamine B assay
OVCAR-8 = test: Growth inhibition of human OVCAR8 cells at 10 uM by sulforhodamine B assay
NCI/ADR-RES = test: Growth inhibition of human NCI/ADR-RES cells at 10 uM by sulforhodamine B assay
SK-OV-3 = test: Growth inhibition of human SKOV3 cells at 10 uM by sulforhodamine B assay
786-0 = test: Growth inhibition of human 786-0 cells at 10 uM by sulforhodamine B assay
A498 = test: Growth inhibition of human A498 cells at 10 uM by sulforhodamine B assay
ACHN = test: Growth inhibition of human ACHN cells at 10 uM by sulforhodamine B assay
CAKI-1 = test: Growth inhibition of human Caki1 cells at 10 uM by sulforhodamine B assay
SN12C = test: Growth inhibition of human SN12C cells at 10 uM by sulforhodamine B assay
UO-31 = test: Growth inhibition of human UO31 cells at 10 uM by sulforhodamine B assay
PC-3 = test: Growth inhibition of human PC3 cells at 10 uM by sulforhodamine B assay
DU-145 = test: Growth inhibition of human DU145 cells at 10 uM by sulforhodamine B assay
MCF7 = test: Growth inhibition of human MCF7 cells at 10 uM by sulforhodamine B assay
MDA-MB-231 = test: Growth inhibition of human MDA-MB-231 cells at 10 uM by sulforhodamine B assay
Hs-578T = test: Growth inhibition of human Hs 578T cells at 10 uM by sulforhodamine B assay
BT-549 = test: Growth inhibition of human BT549 cells at 10 uM by sulforhodamine B assay
T47D = test: Growth inhibition of human T47D cells at 10 uM by sulforhodamine B assay
MDA-MB-468 = test: Growth inhibition of human MDA-MB-468 cells at 10 uM by sulforhodamine B assay
TK-10 = test: Growth inhibition of human TK10 cells at 10 uM by sulforhodamine B assay
UACC-62 = test: Growth inhibition of human UACC62 cells at 10 uM by sulforhodamine B assay
HOP-92 = test: Growth inhibition of human HOP92 cells at 10 uM by sulforhodamine B assay
Malme-3M = test: Growth inhibition of human MALME-3M cells at 10 uM by sulforhodamine B assay
HCC 2998 = test: Growth inhibition of human HCC2998 cells at 10 uM by sulforhodamine B assay
RXF 393 = test: Growth inhibition of human RXF393 cells at 10 uM by sulforhodamine B assay

Measured: growth inhibition (GI)

COc1ccc(-c2nc(-c3ccccc3)c(-c3ccccc3)n2C2CC2)cc1OC1CCCCC1
active: all assays above

COc1cc(-c2nc(-c3ccccc3)c(-c3ccccc3)n2C2CCCCC2)ccc1OC1CCCC1
active: all assays above
